Measured values from BindingDB's records for doi:10.1046/j.1468-2982.2001.00157.x (Roche Bioscience, 2001).

Key:
[1] = molecular target: 5-hydroxytryptamine receptor 6 (Rattus norvegicus, UniProt P31388)
[2] = molecular target: 5-hydroxytryptamine receptor 7 (Rattus norvegicus, UniProt P32305)
[3] = molecular target: 5-hydroxytryptamine receptor 1D (Rattus norvegicus, UniProt P28565)
[4] = molecular target: 5-hydroxytryptamine receptor 1B (Rattus norvegicus, UniProt P28564)
[5] = molecular target: T1, 5-hydroxytryptamine receptor 3A (Rattus norvegicus, UniProt P35563)
T1 sequence (P35563 whole entry): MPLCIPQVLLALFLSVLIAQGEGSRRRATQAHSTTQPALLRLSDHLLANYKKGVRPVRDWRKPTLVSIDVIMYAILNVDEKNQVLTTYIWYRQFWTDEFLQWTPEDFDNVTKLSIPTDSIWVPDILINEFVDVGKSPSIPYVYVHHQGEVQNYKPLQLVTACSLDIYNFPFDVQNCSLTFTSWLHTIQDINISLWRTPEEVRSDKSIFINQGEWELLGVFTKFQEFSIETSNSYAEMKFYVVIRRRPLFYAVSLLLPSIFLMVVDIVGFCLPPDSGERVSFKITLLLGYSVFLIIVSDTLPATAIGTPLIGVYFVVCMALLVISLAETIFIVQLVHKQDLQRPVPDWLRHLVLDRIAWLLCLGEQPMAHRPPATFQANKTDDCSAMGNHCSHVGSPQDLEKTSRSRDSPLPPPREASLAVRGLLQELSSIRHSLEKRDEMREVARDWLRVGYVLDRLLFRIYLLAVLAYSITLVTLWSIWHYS

[6] = molecular target: 5-hydroxytryptamine receptor 2A (Rattus norvegicus, UniProt P14842)
5-hydroxytryptamine receptor 2A, sequence (P14842 whole entry): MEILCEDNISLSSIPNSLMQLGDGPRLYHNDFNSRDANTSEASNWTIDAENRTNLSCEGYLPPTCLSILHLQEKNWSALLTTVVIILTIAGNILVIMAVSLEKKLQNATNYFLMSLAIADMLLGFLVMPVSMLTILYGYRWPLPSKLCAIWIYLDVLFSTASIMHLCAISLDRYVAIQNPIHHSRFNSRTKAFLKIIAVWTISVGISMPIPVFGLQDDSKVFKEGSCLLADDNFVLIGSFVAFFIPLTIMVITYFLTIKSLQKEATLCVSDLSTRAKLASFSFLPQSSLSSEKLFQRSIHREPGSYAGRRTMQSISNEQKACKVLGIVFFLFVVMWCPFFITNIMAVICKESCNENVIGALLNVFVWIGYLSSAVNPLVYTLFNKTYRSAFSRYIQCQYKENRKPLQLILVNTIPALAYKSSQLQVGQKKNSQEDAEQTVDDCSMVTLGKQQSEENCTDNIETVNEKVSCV

5-hydroxytryptamine receptor 1B, sequence (P28564 whole entry): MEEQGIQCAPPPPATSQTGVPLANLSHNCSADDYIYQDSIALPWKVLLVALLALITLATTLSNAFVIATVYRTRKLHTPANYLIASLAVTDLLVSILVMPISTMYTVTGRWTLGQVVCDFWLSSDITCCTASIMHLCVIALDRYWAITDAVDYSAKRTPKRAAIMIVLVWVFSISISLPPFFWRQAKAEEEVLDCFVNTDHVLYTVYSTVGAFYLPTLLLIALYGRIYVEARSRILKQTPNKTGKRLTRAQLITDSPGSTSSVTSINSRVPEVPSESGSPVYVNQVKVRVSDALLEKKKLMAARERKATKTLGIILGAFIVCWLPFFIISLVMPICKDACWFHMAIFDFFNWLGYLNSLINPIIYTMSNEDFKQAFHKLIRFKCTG
5-hydroxytryptamine receptor 7, sequence (P32305 whole entry): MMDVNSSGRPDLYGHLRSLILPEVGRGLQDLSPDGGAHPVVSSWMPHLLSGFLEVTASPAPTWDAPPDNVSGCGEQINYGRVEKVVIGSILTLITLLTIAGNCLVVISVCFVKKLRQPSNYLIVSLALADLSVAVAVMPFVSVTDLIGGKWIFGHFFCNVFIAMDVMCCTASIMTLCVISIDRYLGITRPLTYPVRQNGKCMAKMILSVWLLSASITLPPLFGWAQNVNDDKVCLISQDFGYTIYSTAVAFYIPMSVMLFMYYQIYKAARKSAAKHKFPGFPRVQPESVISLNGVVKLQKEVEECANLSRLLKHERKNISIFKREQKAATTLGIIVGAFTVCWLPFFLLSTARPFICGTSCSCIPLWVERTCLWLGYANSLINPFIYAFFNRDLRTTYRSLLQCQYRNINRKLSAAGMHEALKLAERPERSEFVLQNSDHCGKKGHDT
5-hydroxytryptamine receptor 1D, sequence (P28565 whole entry): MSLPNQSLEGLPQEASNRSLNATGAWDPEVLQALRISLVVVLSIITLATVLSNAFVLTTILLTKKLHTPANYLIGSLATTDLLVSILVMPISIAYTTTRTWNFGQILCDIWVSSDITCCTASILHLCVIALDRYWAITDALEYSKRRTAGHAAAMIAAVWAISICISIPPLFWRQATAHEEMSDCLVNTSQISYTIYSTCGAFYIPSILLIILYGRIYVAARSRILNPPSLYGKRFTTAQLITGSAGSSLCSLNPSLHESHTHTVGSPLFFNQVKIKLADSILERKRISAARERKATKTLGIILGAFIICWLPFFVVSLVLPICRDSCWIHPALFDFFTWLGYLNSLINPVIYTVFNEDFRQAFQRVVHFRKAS
5-hydroxytryptamine receptor 6, sequence (P31388 whole entry): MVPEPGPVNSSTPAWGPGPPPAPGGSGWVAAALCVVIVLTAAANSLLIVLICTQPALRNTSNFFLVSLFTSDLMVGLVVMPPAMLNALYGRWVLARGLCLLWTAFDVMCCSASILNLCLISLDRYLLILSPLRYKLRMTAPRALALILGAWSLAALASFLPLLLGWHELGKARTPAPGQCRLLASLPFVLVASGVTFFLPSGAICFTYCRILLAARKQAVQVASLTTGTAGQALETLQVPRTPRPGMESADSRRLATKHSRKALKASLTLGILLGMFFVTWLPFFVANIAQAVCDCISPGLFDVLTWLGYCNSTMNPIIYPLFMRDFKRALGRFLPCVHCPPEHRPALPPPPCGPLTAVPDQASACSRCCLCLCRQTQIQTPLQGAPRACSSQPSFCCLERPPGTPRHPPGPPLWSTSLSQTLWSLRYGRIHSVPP

Clc1cccc(N2CCNCC2)c1 [mCPP]
Ki [1]: 2510 nM
Ki [2]: 251 nM
Ki [3]: 1580 nM
Ki [4]: 251 nM
Ki [5]: 100 nM
Ki [6]: 200 nM
